Results published in article PMC9332470, “Production and Selection of Antibody–Antigen Pairs for the Development of Immunoenzyme Assay and Lateral Flow Immunoassay Methods for Carbofuran and Its Analogues” (Biosensors, 2022).
Converted amounts (≈) assume the structure as drawn.

Columns and labels:
[1] = system: mAb with the immunogen BFNB-BSA; conditions: heterologous coating antigen BFNH-OVA; cited from earlier work
[2] = system: sol–gel-entrapped antibody; conditions: label-free electrochemical immunosensor; cited from earlier work
[3] = system: specific antibody against carbofuran; conditions: cited from earlier work
[4] = system: mAb with the immunogen BFNH-lactoferrin; conditions: heterologous coating antigen BFOA-BSA; cited from earlier work
mAb 12H5 = assay: ELISA reactivity of hybridoma supernatant, cell line 12H5; format: binding, BALB/c mice; conditions: cell line 12H5 supernatant, 50 ng/mL pesticide
Experimental: (§1) The desired antibodies with the highest affinity were screened by icELISA with carbofuran as a competitive compound, and hybridoma cells were cloned by the limited dilution method. Then, the selected hybridoma cells were injected into mice for ascites production. Finally, the mAbs were purified by (NH4)2SO4 with saturation of 50% and further purified by an SPA column.
(§2) Microplates were coated with coating antigens. Different concentrations of the standard (50 µL) and the mAb (50 µL) were added to each well, and the plates were incubated for 20 min at 37 °C. The plates were washed with PBS (0.01 M, containing 0.05% (v/v) Triton X-100), 100 μL of goat anti-mouse IgG-HRP conjugate solution was added to each well, and the plates were incubated for 20 min at 37 °C. After the plates were washed with PBS (0.01 M, containing 0.05% Triton X-100, v/v), 100 µL of TMB single-component substrate solution was added to each well, followed by incubation at 37 °C for 10 min. Finally, the reaction was terminated, and the absorbance at 450 nm was measured by a microplate reader.
(§3) The inhibition ratio (I%) was calculated as (B0-B)/B0 × 100%. IC50 is the concentration of the carbofuran at an I% of 50%, and the limit of detection (LOD) was determined as the concentration showing 10% of inhibition.
(§4) Then, the reactivity of the supernatant of the six cell lines to 50 ng/mL carbofuran, benfuracarb and carbosulfan was assessed by ELISA, and the results are shown in Table 1. […] Because 13C8 had the highest reactivity with carbofuran, benfuracarb and carbosulfan among the six cell lines, it was injected into mice for ascites production, and the mAbs were purified by a protein A column for further experiments.

mAb 6D6 = assay: ELISA reactivity of hybridoma supernatant, cell line 6D6; format: binding, BALB/c mice; conditions: cell line 6D6 supernatant, 50 ng/mL pesticide
Experimental: as §1, §2, §3, §4

[5] = system: mAb with the immunogen BFNB-KLH; conditions: homologous coating antigen BFNB-OVA; cited from earlier work
[6] = system: broad-specificity mAb with the immunogen BFNB-BSA; conditions: cited from earlier work
mAb 13C8 [7] = assay: indirect competitive ELISA (icELISA) with mAb 13C8; format: binding, BALB/c mice
Experimental: as §2
Taking the logarithm of the carbofuran concentration as the abscissa and (B/B0)% as the ordinate, the standard curves for ELISA and QD-LFIA were obtained based on the Morgan–Mercer–Flodin (MMF) model, which were fitted by CurveExpert 1.4.0 software (https://www.curveexpert.net, accessed on 15 July 2022). For the ELISA method, B and B0 are the absorbance of the sample well and blank well, respectively. For the QD-LFIA method, B and B0 are the T/C (fluorescence intensity of the test line/fluorescence intensity of the control line) of the sample and blank control, respectively.
as §3
The cross-reactivities (CRs) of benfuracarb, carbosulfan, 3-hydroxy-carbofuran, metolcarb, carbaryl, isoprocarb and aldicarb with carbofuran were assessed by ELISA and QD-LFIA. CR was calculated as CR (%) = [IC50 (carbofuran)/IC50 (analogues)] × 100%.
The microplate was coated with the coating antigens DDB-BSA (1 µg/mL), DDB-OVA (0.5 µg/mL), MDA-BSA (0.2 µg/mL) and MDA-OVA (0.1 µg/mL), and the concentration of mAb 13C8 was 0.03 µg/mL. Carbofuran standards (0, 0.05, 0.15, 0.45, 1.35 and 4.05 ng/mL) were detected to obtain a standard curve, and the IC50 was calculated. […] In the icELISA used in this study, free antigen (carbofuran) in solution competed with the coating antigen on the microplate for antibody 13C8; therefore, the IC50 value was negatively correlated with the antibody-binding ability of free antigen competing with coating antigens.
The ELISA method was developed with the antibody 13C8–antigen MDA-BSA pair. Under the optimized coating antigen concentration (0.1 μg/mL), HRP-conjugated goat anti-mouse IgG concentration (1 μg/mL), antibody concentration (0.03 μg/mL) and working buffer parameters (5 mM PBS at pH 7.4), a standard curve was obtained with the concentration of carbofuran on the abscissa and the inhibition ratio (B/B0) on the ordinate.

mAb 13C8 [8] = assay: colloidal gold-based LFIA with mAb 13C8; format: binding, BALB/c mice
Experimental: Ten milliliters of colloidal gold solution was adjusted to pH 8.0 with K2CO3 (0.1 M) at room temperature, and then 60 μg of the antibody was added. After mixing for 30 min at room temperature, 200 μL of 20% (w/v) BSA was added to block the free colloidal gold for 20 min at room temperature. Then, the mixture was centrifuged at 15,777× g for 30 min at 4 °C. Finally, the precipitate was resuspended in 2000 μL of PBS (0.005 M at pH 8.2, containing 10% BSA, 2% glucose, 0.5% alanine, 5% PEG2000 and 0.1% NaN3, w/v) and stored at 4 °C.
An immunochromatographic test strip consisted of a sample pad, a conjugate pad, a nitrocellulose (NC) membrane and an absorbent pad. The mAb–colloidal gold conjugates (700 μL) were sprayed onto the conjugate pad (6 mm × 300 mm) and then dried under vacuum for 20 h at room temperature. DDB-OVA (50 μg/mL) or MDA-OVA (30 μg/mL) and goat anti-mouse IgG antibodies were dispensed on the NC membrane at a rate of 1 μL/cm as the test line (T line) and control line (C line), respectively. The NC membrane was then dried at 37 °C for 3 h. The sample pads, conjugate pads, NC membranes and absorbent pads were attached to the PVC plastic support, and then the assembled plate was cut to obtain 4 mm test strips and placed in a rigid plastic cassette.
We also dispensed DDB-OVA (50 μg/mL) and MDA-OVA (30 μg/mL) onto the NC membrane and labeled antibody 13C8 with colloidal gold to prepare colloidal gold LFIA test strips.

CNC(=O)Oc1cccc2c1OC(C)(C)C2 [carbofuran]
IC50 (ic-ELISA) [1]: 0.66 ng/mL (≈ 2.98 nM) | detection limit [2]: 0.33 ng/mL | IC50 (direct competitive ELISA) [3]: 1.3 ng/mL (≈ 5.88 nM) | IC50 (ELISA) [4]: 1.4 ng/mL (≈ 6.33 nM) | Reactivity of mAb (I%) (mAb 12H5): 78% | Reactivity of mAb (I%) (mAb 6D6): 86% | IC50 (ic-ELISA) [5]: 0.3 ng/mL (≈ 1.36 nM) | CR(%) (ic-ELISA) [6]: 100.0% | IC50 (ic-ELISA) [6]: 8.97 ng/mL (≈ 40.5 nM) | CR (%) (ELISA) (mAb 13C8 [7]; CR = IC50(carbofuran)/IC50(analogue) x 100%, optimized ELISA with mAb 13C8): 100.0% | IC50 (ELISA) (mAb 13C8 [7]; antibody 13C8, coating antigen DDB-BSA (1 µg/mL)): 0.19 ± 0.01 ng/mL (≈ 0.859 nM) | IC50 (ELISA) (mAb 13C8 [7]; antibody 13C8, coating antigen DDB-OVA (0.5 µg/mL)): 0.22 ± 0.02 ng/mL (≈ 0.994 nM) | IC50 (ELISA) (mAb 13C8 [7]; antibody 13C8, coating antigen MDA-BSA (0.2 µg/mL)): 0.20 ± 0.02 ng/mL (≈ 0.904 nM) | IC50 (ELISA) (mAb 13C8 [7]; antibody 13C8, coating antigen MDA-OVA (0.1 µg/mL)): 0.17 ± 0.01 ng/mL (≈ 0.768 nM) | detection limit (ELISA) (mAb 13C8 [7]; concentration showing 10% of inhibition, optimized ELISA): 0.02 ng/mL | working range (ELISA) (mAb 13C8 [7]; optimized ELISA): 0.02 to 2.09 ng/mL | IC50 (ELISA) (mAb 13C8 [7]; optimized ELISA, mAb 13C8 0.03 μg/mL, coating antigen 0.1 μg/mL, given as MDA-BSA and MDA-OVA, unit from text): 0.18 ± 0.03 ng/mL (≈ 0.814 nM) | cut-off (colloidal gold LFIA) (mAb 13C8 [8]; heterologous coating antigen MDA-OVA (30 μg/mL)): 3 ng/mL | change of T line versus 0 ng/mL (mAb 13C8 [8]; heterologous coating antigen MDA-OVA, 1 ng/mL carbofuran): significantly lighter | change of T line versus 0 ng/mL (mAb 13C8 [8]; homologous coating antigen DDB-OVA, 1000 ng/mL carbofuran): almost no change
